# According to patent US20260041679A1, “METHOD OF TREATING HYPERTENSION WITH THE ALDOSTERONE SYNTHASE INHIBITOR BAXDROSTAT” (CINCOR PHARMA, INC., priority 2022, published 2026):
# Read-outs that look alike come from different tables or passages of the source.
# Columns and labels:
# [1] = Multiple ascending dose study, safety (Example 2); assay type: in vivo, human; conditions: 0.5 to 5.0 mg once daily, 10 days
# Method: This randomized, double-blind, placebo-controlled phase 1 study evaluated the safety, pharmacokinetics, and pharmacodynamics of multiple ascending doses of baxdrostat in healthy volunteers. Fifty-six subjects were randomized to receive oral baxdrostat (0.5, 1.5, 2.5, or 5.0 mg) or placebo once daily for ten days and were placed on either a low salt or normal salt diet for the duration of the study. In particular, subjects were randomized into 5 cohorts to receive baxdrostat or placebo once daily for 10 days. Cohorts 1 and 2 were placed on a low salt diet to stimulate aldosterone production and were administered 2.5 or 5.0 mg oral baxdrostat, respectively. Cohorts 1 and 2 also underwent an adrenocorticotropic hormone (ACTH) challenge to increase aldosterone and cortisol levels to evaluate the specificity of baxdrostat for targeting aldosterone synthase. Cohorts 3, 4, and 5 were placed on a normal salt diet and were administered 1.5, 2.5, or 0.5 mg oral baxdrostat, respectively. Blood samples were collected prior to and after dosing on days 1 and 10 for measurement of plasma baxdrostat concentrations to characterize single-dose and steady-state pharmacokinetics. Pharmacodynamic measurements included plasma aldosterone, cortisol, and electrolytes. Safety assessments included physical examination, electrocardiograms, orthostatic vital signs, and clinical laboratory evaluations.
# aldosterone synthase = biological target: T1, aldosterone synthase (Homo sapiens, UniProt P19099); assay: Single ascending dose study, pharmacodynamics: aldosterone, cortisol with ACTH challenge (Example 1); assay type: in vivo
# T1 construct: Pharmacodynamic measurements included plasma aldosterone, cortisol, and electrolytes; endogenous in cells; host or cells: human subjects in vivo (healthy volunteers; resistant hypertension patients)
# T1 sequence (P19099 25-503): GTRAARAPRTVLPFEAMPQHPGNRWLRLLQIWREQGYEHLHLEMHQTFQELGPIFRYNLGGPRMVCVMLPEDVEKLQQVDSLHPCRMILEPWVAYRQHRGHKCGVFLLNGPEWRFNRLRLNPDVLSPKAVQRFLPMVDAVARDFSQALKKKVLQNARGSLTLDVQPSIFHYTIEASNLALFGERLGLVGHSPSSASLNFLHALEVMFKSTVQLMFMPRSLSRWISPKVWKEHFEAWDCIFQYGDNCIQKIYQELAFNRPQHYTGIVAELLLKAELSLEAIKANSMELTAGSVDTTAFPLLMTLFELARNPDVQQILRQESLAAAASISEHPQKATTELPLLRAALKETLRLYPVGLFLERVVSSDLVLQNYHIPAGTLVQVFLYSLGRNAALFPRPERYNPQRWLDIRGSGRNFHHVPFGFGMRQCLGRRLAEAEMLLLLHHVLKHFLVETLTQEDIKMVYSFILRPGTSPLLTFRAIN
# Method: Eighty-eight healthy male volunteers completed the first-in-human study of baxdrostat. In part 1 of the trial, subjects received a single oral dose of baxdrostat ranging from 1 to 360 mg in order to evaluate safety, tolerability, PK, and pharmacodynamics (PD). Part 2 evaluated the PK of a single 3 mg intravenous dose of baxdrostat.
# [2] = Study 124 Part 1: safety, adverse events and serum potassium; assay type: in vivo, human
# From the text: The safety objectives for both Parts 1 and 2 are to evaluate vital signs, standing blood pressure, heart rate, physical examinations, ECG, body weight, and clinical laboratory assessments, including standard safety chemistry panel, hematology, coagulation, and urinalysis.
# [3] = Pharmacokinetics in subjects with moderate hepatic impairment vs normal hepatic function (Example 5); assay type: in vivo, human; conditions: for CL renal / Cmax / AUC(0-inf) / Tmax: human, oral, 10 mg; for CL renal: plasma and urine, read-out: CLR, geometric mean (% CV) (converted); for CL renal / Cmax / AUC(0-inf) / Tmax / CL/F, geometric mean (% CV): single 10 mg; for Cmax / AUC(0-inf) / Tmax: plasma; for Cmax: read-out: Cmax, geometric mean (% CV); for AUC(0-inf): read-out: AUC(0-inf), geometric mean (% CV); for Tmax: read-out: Tmax, arithmetic mean (SD)
# Method: Subjects with moderate hepatic impairment (Child-Pugh Category B, n=10) and healthy controls (n=10) were each given a single 10 mg oral dose of baxdrostat. Subjects were matched by age, sex, body mass index, race, and smoking status. Serial blood and urine samples were collected to determine plasma and urine concentrations of baxdrostat for 7 days postdose. Safety was assessed based on adverse events, clinical laboratory evaluations, vital signs, electrocardiogram and physical examinations.
# [4] = Part 1, 0.5 mg baxdrostat, n = 63
# [5] = Part 1, 1 mg baxdrostat, n = 62
# [6] = Part 1, 2 mg baxdrostat, n = 60
# [7] = moderate hepatic impairment vs normal hepatic function
structure (smiles),measurement,setting,value
"CCC(=O)N[C@@H]1CCCc2c(-c3ccc4c(c3)CCC(=O)N4C)cncc21 [baxdrostat, (R)—N-(4-(1-methyl-2-oxo-1,2,3,4-tetrahydroquinolin-6-yl)-5,6,7,8-tetrahydroisoquinolin-8-yl) propionamide]",deaths or serious adverse events,[1],no deaths or serious adverse events
same,severity of treatment-emergent adverse events,[1],mild in severity
same,cortisol levels with an adrenocorticotropin hormone challenge,aldosterone synthase; single oral dose,no meaningful effect on cortisol levels
same,aldosterone levels,"aldosterone synthase; single oral dose 1 to 360 mg, fasted, low salt and normal salt diet",significantly reduced aldosterone levels in a dose-dependent manner
same,Mean Change in Serum Potassium From Baseline at Week 8 (SD),[2]; 0.5 mg,−0.07 (0.37) mmol/L
same,Mean Change in Serum Potassium From Baseline at Week 8 (SD),[2]; 1 mg,0.26 (0.47) mmol/L
same,Mean Change in Serum Potassium From Baseline at Week 8 (SD),[2]; 2 mg,0.12 (0.48) mmol/L
same,increase in mean potassium,[2]; 2 mg dose,0.1 mEq/L
same,potassium elevations>6.2 mEq/L,[2]; Part 1,No potassium elevations>6.2 mEq/L were recorded
same,share of patients receiving baxdrostat with potassium>6 mEq/L,[2]; Part 1,~1.6%
same,treatment emergent SAEs,[2]; Part 1,two treatment emergent SAEs (2 patients) and neither were deemed related to baxdrostat
same,patients with isolated instances of moderately elevated potassium>6 mEq/L,"[2]; Part 1, all baxdrostat doses",Three
same,"AESI, %",[2]; [4],1.6%
same,"AESI, e - Number of events",[2]; [4],1
same,"AESI, n - Number of subjects",[2]; [4],1
same,"SAEs, %",[2]; [4],0.0%
same,"SAEs, e - Number of events",[2]; [4],0
same,"SAEs, n - Number of subjects",[2]; [4],0
same,"TEAEs Drug-Related, %",[2]; [4],6.3%
same,"TEAEs Drug-Related, e - Number of events",[2]; [4],6
same,"TEAEs Drug-Related, n - Number of subjects",[2]; [4],4
same,"TEAEs Leading to death, %",[2]; [4],0.0%
same,"TEAEs Leading to death, e - Number of events",[2]; [4],0
same,"TEAEs Leading to death, n - Number of subjects",[2]; [4],0
same,"TEAEs Leading to dosing discontinuation, %",[2]; [4],1.6%
same,"TEAEs Leading to dosing discontinuation, e - Number of events",[2]; [4],1
same,"TEAEs Leading to dosing discontinuation, n - Number of subjects",[2]; [4],1
same,"TEAEs Leading to study discontinuation, %",[2]; [4],1.6%
same,"TEAEs Leading to study discontinuation, e - Number of events",[2]; [4],1
same,"TEAEs Leading to study discontinuation, n - Number of subjects",[2]; [4],1
same,"TEAEs, %",[2]; [4],28.6%
same,"TEAEs, e - Number of events",[2]; [4],30
same,"TEAEs, n - Number of subjects",[2]; [4],18
same,"AESI, %",[2]; [5],1.6%
same,"AESI, e - Number of events",[2]; [5],1
same,"AESI, n - Number of subjects",[2]; [5],1
same,"SAEs, %",[2]; [5],1.6%
same,"SAEs, e - Number of events",[2]; [5],1
same,"SAEs, n - Number of subjects",[2]; [5],1
same,"TEAEs Drug-Related, %",[2]; [5],9.7%
same,"TEAEs Drug-Related, e - Number of events",[2]; [5],10
same,"TEAEs Drug-Related, n - Number of subjects",[2]; [5],6
same,"TEAEs Leading to death, %",[2]; [5],0.0%
same,"TEAEs Leading to death, e - Number of events",[2]; [5],0
same,"TEAEs Leading to death, n - Number of subjects",[2]; [5],0
same,"TEAEs Leading to dosing discontinuation, %",[2]; [5],3.2%
same,"TEAEs Leading to dosing discontinuation, e - Number of events",[2]; [5],2
same,"TEAEs Leading to dosing discontinuation, n - Number of subjects",[2]; [5],2
same,"TEAEs Leading to study discontinuation, %",[2]; [5],0.0%
same,"TEAEs Leading to study discontinuation, e - Number of events",[2]; [5],0
same,"TEAEs Leading to study discontinuation, n - Number of subjects",[2]; [5],0
same,"TEAEs, %",[2]; [5],30.6%
same,"TEAEs, e - Number of events",[2]; [5],42
same,"TEAEs, n - Number of subjects",[2]; [5],19
same,"AESI, %",[2]; [6],6.7%
same,"AESI, e - Number of events",[2]; [6],4
same,"AESI, n - Number of subjects",[2]; [6],4
same,"SAEs, %",[2]; [6],1.7%
same,"SAEs, e - Number of events",[2]; [6],1
same,"SAEs, n - Number of subjects",[2]; [6],1
same,"TEAEs Drug-Related, %",[2]; [6],10.0%
same,"TEAEs Drug-Related, e - Number of events",[2]; [6],8
same,"TEAEs Drug-Related, n - Number of subjects",[2]; [6],6
same,"TEAEs Leading to death, %",[2]; [6],1.7%
same,"TEAEs Leading to death, e - Number of events",[2]; [6],1
same,"TEAEs Leading to death, n - Number of subjects",[2]; [6],1
same,"TEAEs Leading to dosing discontinuation, %",[2]; [6],3.3%
same,"TEAEs Leading to dosing discontinuation, e - Number of events",[2]; [6],2
same,"TEAEs Leading to dosing discontinuation, n - Number of subjects",[2]; [6],2
same,"TEAEs Leading to study discontinuation, %",[2]; [6],1.7%
same,"TEAEs Leading to study discontinuation, e - Number of events",[2]; [6],1
same,"TEAEs Leading to study discontinuation, n - Number of subjects",[2]; [6],1
same,"TEAEs, %",[2]; [6],23.3%
same,"TEAEs, e - Number of events",[2]; [6],27
same,"TEAEs, n - Number of subjects",[2]; [6],14
same,hyperkalemia leading to trial discontinuation,[2]; active Baxdrostat groups,No instances of hyperkalemia led to trial discontinuation
same,CL renal,[3]; moderate hepatic impairment,4.98 mL/min
same,CL renal,[3]; normal hepatic function,6.02 mL/min
same,Cmax,[3]; moderate hepatic impairment (n = 10),119 ng/mL
same,AUC(0-inf),[3]; moderate hepatic impairment,3570 ng·h/mL
same,Tmax,[3]; moderate hepatic impairment,2.15 h
same,Cmax,[3]; normal hepatic function (n = 10),104 ng/mL
same,AUC(0-inf),[3]; normal hepatic function,3780 ng·h/mL
same,Tmax,[3]; normal hepatic function,2.55 h
same,"AUC(0-inf), ratio of GLSM (90% CI)",[3]; [7],"0.95 (0.73, 1.23)"
same,"Cmax, ratio of GLSM (90% CI)",[3]; [7],"1.1 (0.97, 1.32)"
same,"CL/F, geometric mean (% CV)",[3]; moderate hepatic impairment,2.80 (30.1) L/hr
same,"CL/F, geometric mean (% CV)",[3]; normal hepatic function,2.64 (24.7) L/hr
